# Data: a melting point compilation (Tetko et al.; mined from patent text by program, amines drawn as free bases though some values may be those of a salt)
row,Structure (SMILES),melting point
1,CC(C)(C)C(=NO)Nc1ccc(Cl)nn1,128 to 130 °C
2,CC(=O)NCc1coc2cc(NS(C)(=O)=O)c(Oc3ccccc3)cc2c1=O,240 to 242 °C
3,FC(F)(F)Oc1ccc(Nc2nc(Cl)nc(Cl)n2)cc1,119 to 122 °C
4,CC(=O)N1CCN(c2cc(-c3cnc4c(c3)N(Cc3cc(Cl)ccc3C(F)(F)F)CCN4)ccn2)CC1,241 °C
5,COC(=O)C(C#N)C(=O)c1snc(Cl)c1Cl (stereo not drawn),119 to 122 °C
6,CNc1cccc(C#CCCn2nc3ccccc3n2)n1,150 to 154 °C
7,c1ccc(-c2ccc3nc(COc4ccc(CCCn5ccnc5)cc4)cn3c2)cc1,106 to 107 °C
8,O=C1NCCN(C(c2ccccc2)(c2ccccc2)c2ccccc2)C1=O,230 to 235 °C
9,Cc1ccc2c(c1)C1(CNC(=O)C1)CC2=O (stereo not drawn),188 to 192 °C
10,COCOc1ccccc1OCBr,40 to 42 °C
11,O=C(Cc1ccc(Cl)cc1Cl)c1ccc(Cl)cc1,119 °C
12,CNC(=O)c1ccc2cc(C(=O)O)ccc2c1,> 276 °C
13,Oc1ccccc1CNCCCCCCNCc1ccccc1O,72 to 73 °C
14,Cc1ccc2oc(-c3ccccc3)nc2n1,148 to 149 °C
15,CCNc1nc(C)c(-c2ccnc(Nc3cc(OC)cc(OC)c3)n2)s1,235 to 237 °C
16,CCCc1nn(C)c2c(=O)[nH]c(-c3cc([N+](=O)[O-])cnc3OC3CCC3)nc12,212 to 214 °C
17,COc1cc(OC)c2c(=O)[nH]c(-c3ccc4[nH]c(CCN5CCCC5)cc4c3)nc2c1,215 to 217 °C
18,CC(C1CCC(Oc2ccc(F)cc2)C1)N(O)C(N)=O (stereo not drawn),111 to 112 °C
19,CCC(CC)Nc1c(C)c(C)nc2c1c(C)nn2-c1c(C)cc(C)cc1C,201 to 205 °C
20,CCc1ccc(NC(C)=O)cc1,94 to 96 °C
21,CC(C)N(CCCCOc1ccc(-c2nnc(CSCCOc3ccccc3)o2)cc1)C(C)C,42 to 44 °C
22,CC(C)(C)c1nnc(-c2ccccn2)[nH]c1=O,114 to 115 °C
23,O=C1NC(=O)C2(CCOc3ccc(F)cc32)N1 (stereo not drawn),239 to 241 °C
24,CS(=O)(=O)c1ccc(COc2cccc(C(=O)Nc3ccc(C#N)cc3)c2)cc1,209 to 210 °C
25,O=c1c(-c2ccccc2O)coc2cc(O)ccc12,196 to 198 °C

row,Structure (SMILES),melting point
1,CC(C)c1c(S(=O)(=O)c2ccc(O)cc2)n(C)c2ccccc12,188 °C
2,COc1cncnc1N1CCN(CCCc2c[nH]c3ccc(-c4c(NC(C)C)c(=O)c4=O)cc23)CC1,104 to 106 °C
3,Cn1ncc(Cl)c(NCCN2CCC(c3noc4cc(F)ccc34)CC2)c1=O,108 to 109 °C
4,COc1ccc2cccnc2c1O,113 to 115 °C
5,COC(=O)c1cc(=O)c2ccc(S)cc2o1,147 to 150 °C
6,CCOC(=O)c1ccc(-c2nnc(-c3ccccc3[N+](=O)[O-])o2)cc1,127 to 128 °C
7,O=C1c2ccc(C(F)(F)F)cc2C(=O)N1c1ccc2ccc(Cl)nc2n1,265 °C
8,CN1Cc2c(-c3noc(CCl)n3)ncn2-c2ccccc2C1=O,208 to 209 °C
9,CC1(C)OC(c2ccc(S(N)(=O)=O)c(Cl)c2)=C(c2ccccc2)C1=O,193 to 194 °C
10,CC(C)(c1cc(Cl)cc([N+](=O)[O-])c1O)c1cc(Cl)cc([N+](=O)[O-])c1O,188 °C
11,CC(C)CCc1c(-c2ccc(S(N)(=O)=O)cc2)cnn(-c2cccc(Cl)c2)c1=O,167 to 170 °C
12,O=C(NCCO)c1[nH]c2ccc(Cl)cc2c1-c1ccccc1F,178 to 180 °C
13,CC(C)(C)OC(=O)Nc1ccc(I)cc1N,127 to 130 °C
14,CCOC(=O)c1nnc2n1-c1ccccc1C(c1ccccc1Cl)=NC2,235 to 237 °C
15,Cc1cc(OCCCCCCCCNC(=O)c2cc(-c3cccc(Cl)c3)c(OCC(=O)O)c(-c3cccc(Cl)c3)c2)ccc1F,138 to 140 °C
16,CCCCC(=O)Nc1ccc(Cl)c(-n2nc(CCCC)c(Cc3ccc(-c4ccccc4S(=O)(=O)NC(=O)c4ccccc4Cl)cc3)c2C(=O)OCC)c1,> 95 °C
17,CCCS(=O)(=O)Nc1ccc(C(=O)CC#N)cc1,150 to 151 °C
18,O=Cc1ccc(Sc2nc3c(F)c(F)c(F)cc3[nH]2)o1,152 °C
19,C=CCN(CC=C)c1nc(N(CC=C)CC=C)nc(N2CCN(C(=O)NC(c3ccccc3)c3ccccc3)CC2)n1,158 to 159 °C
20,CCCCCCCCCCOc1cc(OCCCCCCCCCC)cc(C(=O)OC)c1,52 to 53 °C
21,CCN1CCCC1CNC(=O)c1cc(NS(C)(=O)=O)c(C)cc1OC (stereo not drawn),132 to 133 °C
22,COc1ccccc1N1CCN(C(=O)NCCN(C)C)CC1,98 to 100 °C
23,COc1ccc(-c2c(C)[nH]c(=S)n2Nc2cccc(Cl)c2)cc1,226 °C
24,CCCCC(=O)c1ccc(OCCCC(=O)O)c(Cl)c1Cl,92 to 94 °C
25,CCCn1c(CO)nc(C(C)C)c1Sc1cc(Cl)cc(Cl)c1,104 to 107 °C

row,Structure (SMILES),melting point
1,CCOP(=O)(Cc1cccc(CN2C(=O)c3ccccc3C2=O)c1)OCC,100 to 101 °C
2,Cc1noc(NS(=O)(=O)c2ccc(NC(=O)NC3CCCCC3)cc2)c1C,190 to 195 °C
3,CCCCCC(CC(=O)Nc1cc(C(=O)O)ccc1C(C)(C)C)c1cccc(OC)c1OC (stereo not drawn),146 to 147 °C
4,N#CCC1CCSc2sccc2C1=O (stereo not drawn),68 to 70 °C
5,CCn1nc(OCC(=O)c2cccs2)c(-c2ccc(F)cc2)c1-c1ccc(S(C)(=O)=O)cc1,163 to 164 °C
6,CCCCCCCCCCCCCCCCCCOC1OCC(CNC(=O)C(F)(F)F)O1 (stereo not drawn),80 °C
7,CN1CC(CC#N)CC2c3cccc4c3C(CN4)CC21 (stereo not drawn),100 to 104 °C
8,COc1ccc2c(c1)CCCC21NC(=O)NC1=O (stereo not drawn),218 to 220 °C
9,CCCCCCCCc1ccc(N(c2ccc(CCCCCCCC)cc2)C2(c3ccc(N(C)C)cc3C)OC(=O)c3ccccc32)cc1 (stereo not drawn),172 to 174 °C
10,O=C1Cc2cnccc2N1,> 250 °C
11,Cn1c(C(F)(F)F)cc(=O)n(-c2ccc(Cl)cc2O)c1=O,198 to 202 °C
12,COc1ccc(NS(=O)(=O)c2ccc(N3CCC(=O)CC3)cc2)cc1OC,50 to 56 °C
13,O=C(Nc1ccc2cc(CN3CCCC3)cnc2c1)c1ccc(-c2ccc(F)cc2)cc1,210 to 212 °C
14,CSc1cc2c(cc1SC)C(=O)c1cc3ccccc3cc1C2=O,> 260 °C
15,CC(C)(CCCCOCCCCC(C)(C)C(=O)O)C(=O)O,49 to 51 °C
16,CC(C)CC(C)(C#N)N=NC(C)(C#N)CC(C)C (stereo not drawn),52 to 56 °C
17,COc1ccc2[nH]c3cc(-c4cccc([N+](=O)[O-])c4)c4c(c3c2c1)C(=O)NC4=O,> 340 °C
18,COC(=O)C=Cc1ccc(OCc2nc(-c3ccc4ccccc4c3)oc2C)cc1,185 to 186 °C
19,O=C(O)CC(Cc1ccccc1)NC(=O)C1Cc2ccccc2N1S(=O)(=O)c1ccc(-c2ccc(F)cc2)cc1 (stereo not drawn),87 to 90 °C
20,COc1ccc(-c2cc(=O)c3cccnc3o2)cc1,269 to 270 °C
21,CC(=O)Nc1c[nH]c(=S)n1C1CCc2ccccc2C1 (stereo not drawn),196 to 200 °C
22,Cn1c(COc2ccc(CC3SC(=O)NC3=O)cc2)nc2ccc(Oc3ccc(NC(=O)C4CCCC4)cc3)cc21 (stereo not drawn),227 to 228 °C
23,CCC(Cc1ccc(OCCN2CCOCC2)cc1)(C(=O)NO)S(=O)(=O)c1ccc(OC)cc1 (stereo not drawn),51 °C
24,O=S(=O)(Nc1cccc(CCOCc2nc(-c3ccc(C(F)(F)F)cc3)sc2Cl)c1)C(F)(F)F,107 to 109 °C
25,COC(=O)C1(Cc2ccc(Br)cc2)CC(=O)CN1C(=O)Nc1cc(Cl)cc(Cl)c1 (stereo not drawn),194 °C

row,Structure (SMILES),melting point
1,Cc1ccc(/C=C/c2ccc(Cl)cc2[N+](=O)[O-])c([N+](=O)[O-])c1,230 °C
2,O=C(Nc1ccc(CN2C(=O)[C@H]3CCC[C@H]3N(C(=O)CN3C(=O)c4ccccc4C3=O)c3ccccc32)cc1)c1ccc(Br)cc1 (relative stereo),175 to 180 °C
3,CCCOc1ccccc1-c1nc(NC(=O)CCC)cc(=O)[nH]1,177 to 178 °C
4,Cc1onc(CCc2ccccc2)c1C(N)=O,135 to 136 °C
5,COc1ccc(Nc2ncc3cc(-c4c(Cl)cccc4Cl)c(=O)n(C)c3n2)cn1,233 to 235 °C
6,CCOC(=O)C1CNc2ccc(C)cc2O1 (stereo not drawn),90 to 92 °C
7,CC(C)n1nc(-c2sc(NC(=O)N3CCCCC3)nc2-c2ccccc2)ccc1=O,138 to 140 °C
8,CC(=O)N1CCC(c2nc3cccc4c3n2CCC4)CC1,139 to 140 °C
9,CCCC(CCC)CCCC1COCCN1CCCCCO (stereo not drawn),59 to 60 °C
10,CNc1ccc(-c2ncn(-c3ccc(OC(F)(F)F)cc3)n2)cc1,121 to 123 °C
11,COCCOc1cc(OC)c2c(=O)[nH]c(-c3ccc(N4C[C@@H](C)N(C(C)=O)[C@@H](C)C4)cc3)nc2c1,225 to 227 °C
12,CN1C(=O)c2cc(CCc3ccncc3)cnc2N(C2CC2)c2nc(Cl)ccc21,218 to 219 °C
13,COCC1CN(c2ccc(C3CCC4(CC3)OCCO4)nc2)C(=O)O1 (racemic),93 to 94 °C
14,CCCc1nc(C)n2c(=O)n(CC(=O)O)nc2c1Cc1ccc(NC(=O)c2ccccc2S(=O)(=O)O)cc1,296 to 300 °C
15,O=S(=O)(C(=CNc1cccc(NC=C(S(=O)(=O)c2ccccc2)S(=O)(=O)c2ccccc2)n1)S(=O)(=O)c1ccccc1)c1ccccc1,299 to 300 °C
16,CCOc1cccc(NC(=O)Nc2ccc(N3CCN(C(=O)Nc4ccc(OCCO)cc4C(F)(F)F)CC3)cc2)c1,108 to 110 °C
17,CCNC(=O)/C=C/CSc1nc(N)cc(Cl)n1,160 to 161 °C
18,O=C1CC(c2ccc(OCc3ccccc3)cc2)CN1O (stereo not drawn),150 to 155 °C
19,Fc1ccc(-c2ncn(C3CCNCC3)c2-c2ccnc(Oc3ccccc3F)n2)cc1,154 to 155 °C
20,N#Cc1ccccc1NC(=O)Nc1ccc(S(N)(=O)=O)cc1,256 to 258 °C
21,CCn1nc(O)nc1SC,83 to 87 °C
22,Oc1nc(C2CC2)ncc1Br,200 °C
23,Cc1ccc2cccc(OCc3c(Cl)ccc(N(C)C(=O)CNC(=O)C=Cc4ccc(C(=O)O)cc4)c3Cl)c2n1,238 to 241 °C
